Consider one compound from patent EP4061322B1 (Institut des Sciences et Industries du Vivant et de …, priority 2019, dated 2021).

The structures appear in SMILES notation.

Data set [1] concerns the target T1, AR (récepteur des androgènes) (Homo sapiens, UniProt P10275).
T1 sequence (P10275 1-920): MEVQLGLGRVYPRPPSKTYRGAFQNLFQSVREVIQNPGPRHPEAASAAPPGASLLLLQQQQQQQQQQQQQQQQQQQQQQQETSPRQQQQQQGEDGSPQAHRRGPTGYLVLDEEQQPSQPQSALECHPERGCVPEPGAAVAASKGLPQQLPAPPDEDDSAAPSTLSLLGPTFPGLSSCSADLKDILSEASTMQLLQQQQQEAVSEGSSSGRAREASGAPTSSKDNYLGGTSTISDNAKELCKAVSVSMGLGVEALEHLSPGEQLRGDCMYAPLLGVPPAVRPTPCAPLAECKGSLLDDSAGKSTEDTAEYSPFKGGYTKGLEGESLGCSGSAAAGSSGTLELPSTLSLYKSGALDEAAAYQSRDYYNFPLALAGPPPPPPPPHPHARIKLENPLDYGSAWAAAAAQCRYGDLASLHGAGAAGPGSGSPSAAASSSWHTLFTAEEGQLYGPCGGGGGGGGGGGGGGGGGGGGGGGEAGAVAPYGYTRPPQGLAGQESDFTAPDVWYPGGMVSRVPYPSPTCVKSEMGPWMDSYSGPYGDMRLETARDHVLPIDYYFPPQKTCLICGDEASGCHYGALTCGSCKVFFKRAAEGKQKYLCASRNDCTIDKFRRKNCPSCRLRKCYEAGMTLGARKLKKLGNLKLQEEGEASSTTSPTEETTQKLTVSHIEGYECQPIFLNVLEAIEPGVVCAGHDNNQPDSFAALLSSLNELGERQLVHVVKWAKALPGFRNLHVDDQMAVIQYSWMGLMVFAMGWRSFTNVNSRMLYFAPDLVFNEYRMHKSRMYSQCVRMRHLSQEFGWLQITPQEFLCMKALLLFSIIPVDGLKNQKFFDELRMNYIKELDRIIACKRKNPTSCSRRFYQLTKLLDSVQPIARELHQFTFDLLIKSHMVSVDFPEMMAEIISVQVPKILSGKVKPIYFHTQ
As to the kind of experiment: Endocrine system: receptor activity in presence of compound (agonist effect). It is filed as cell-based. As to conditions: Figure 6, C = 10 µM; even at the highest concentrations. The source says: (§1) L'effet des composés 1 et 4 sur le système endocrinien a été évalué pour leurs propriétés agonistes et antagonistes sur différents récepteurs : ERα (récepteur œstrogène alpha), AR (récepteur des androgènes) et PXR (pregnane X receptor). Un premier test consiste à étudier l'activité des récepteurs en présence du composé 1 ou 4 (effet agoniste). […] Un second test vise à l'étude de l'activité des récepteurs en présence du composé 1 ou 4 et d'une molécule de référence pour chaque récepteur (effet antagoniste).

Data set [2] deals with T2, ERα (récepteur œstrogène alpha) (Homo sapiens, UniProt P03372).
T2 sequence (P03372 1-595): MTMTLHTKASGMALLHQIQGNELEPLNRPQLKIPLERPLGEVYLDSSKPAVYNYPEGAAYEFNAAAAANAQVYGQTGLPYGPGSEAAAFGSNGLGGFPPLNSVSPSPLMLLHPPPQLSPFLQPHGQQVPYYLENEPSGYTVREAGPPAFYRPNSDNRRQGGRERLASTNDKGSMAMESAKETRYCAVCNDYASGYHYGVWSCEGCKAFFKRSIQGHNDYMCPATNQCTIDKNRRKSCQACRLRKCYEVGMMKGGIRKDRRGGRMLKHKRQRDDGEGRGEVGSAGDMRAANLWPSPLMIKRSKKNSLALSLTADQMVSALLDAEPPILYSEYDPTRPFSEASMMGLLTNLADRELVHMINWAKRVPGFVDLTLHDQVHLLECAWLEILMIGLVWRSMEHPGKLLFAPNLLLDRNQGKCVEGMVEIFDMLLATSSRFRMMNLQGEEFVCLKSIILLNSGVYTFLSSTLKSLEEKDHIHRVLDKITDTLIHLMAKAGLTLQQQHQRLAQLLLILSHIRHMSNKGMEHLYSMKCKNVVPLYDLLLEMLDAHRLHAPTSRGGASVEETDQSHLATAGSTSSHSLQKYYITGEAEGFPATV
Described as above. It is filed as cell-based. As to conditions: Figure 6, C = 10 µM; even at the highest concentrations.
Excerpt: as §1

Data set [3] has as its target T3, PXR (pregnane X receptor) (Homo sapiens, UniProt O75469).
T3 sequence (O75469 1-434): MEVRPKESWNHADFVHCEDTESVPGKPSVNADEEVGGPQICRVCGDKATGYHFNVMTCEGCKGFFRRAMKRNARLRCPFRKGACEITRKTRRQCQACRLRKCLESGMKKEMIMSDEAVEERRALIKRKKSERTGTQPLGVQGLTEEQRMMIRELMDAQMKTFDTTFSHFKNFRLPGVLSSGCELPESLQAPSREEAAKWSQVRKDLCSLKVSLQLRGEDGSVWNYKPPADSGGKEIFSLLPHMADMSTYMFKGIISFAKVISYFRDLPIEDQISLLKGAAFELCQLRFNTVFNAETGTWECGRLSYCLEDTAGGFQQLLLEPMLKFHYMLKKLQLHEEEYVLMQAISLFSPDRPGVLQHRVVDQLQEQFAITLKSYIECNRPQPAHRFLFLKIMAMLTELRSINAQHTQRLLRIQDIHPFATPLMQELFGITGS
The description is as above. It is filed as cell-based. As to conditions: Figure 6, C = 10 µM; even at the highest concentrations.
Excerpt: as §1

The nature of data set [4]: Photostability under UV exposure. It is filed as physicochemical. As to conditions: Tableau 1; for Perte d'activité (%): UV exposure λ 300 nm, P 8.32 W/m^2, one hour. The text has this:
La stabilité des composés 1 à 7 aux UV a été étudiée par soumission à une exposition (λ : 300 nm, P : 8.32 W/m^2) pendant une heure.
L'Avobenzone a été utilisée comme molécule de référence. Cette molécule est connue pour être […] sous exposition UV, ce qui n'est pas du tout le cas d'autres composés bio-sourcés.
La photostabilité des composés 8 à 11 a également été étudiée, de manière identique au test appliqué aux composés 1 à 7. Les résultats obtenus sont présentés dans le Tableau 2. […] Cette méthodologie a été appliquée à l'ensemble des molécules décrites ci-dessus. Tableau 2 : Stabilité des composés 8 à 11 soumis à une exposition aux UV.

Data set [5] deals with T1, AR (récepteur des androgènes). As to the kind of experiment: Endocrine system: receptor activity in presence of compound and reference molecule (antagonist effect). It is filed as cell-based. As to conditions: Figure 8; with reference molecule; even at the highest concentrations.
Excerpt: as §1

Data set [6] concerns the target T2, ERα (récepteur œstrogène alpha). Described as above. It is filed as cell-based. As to conditions: Figure 7; with reference molecule; even at the highest concentrations.
Excerpt: as §1

For data set [7], the target named is T3, PXR (pregnane X receptor). The description is as above. It is filed as cell-based. As to conditions: Figure 9; with reference molecule; even at the highest concentrations.
Excerpt: as §1

The nature of data set [8]: UV-Vis absorption spectrum (anti-UVA and blue light properties). It is filed as physicochemical. Details: λmax: unit not given here. As to conditions: Tableau 1. The source says: Un spectre UV-Vis a été réalisé dans l'éthanol à 10^-5 mol/L pour les composés 1 à 7, qui sont des dérivés furaniques de l'acide de Medrum. L'Avobenzone, une molécule très largement utilisée comme filtre UVA dans les crèmes solaires, a été utilisée en tant que référence.
Cette méthodologie a été employée pour évaluer les propriétés anti-UV des composés 8 à 11, qui sont des dérivés phénoliques de l'acide de Medrum, des composés 12 à 15 qui sont des dérivés pyrroliques de l'acide de Meldrum, des composés 16 à 18 qui sont des dérivés vinylphénol de l'acide de Meldrum, le composé 19 qui est un dérivé vinylfurane de l'acide de Meldrum.

On to `CC1(C)OC(=O)C(=Cc2ccco2)C(=O)O1` [Composé 1, 5-(2-Furanylmethylene)-2,2-dimethyl-1,3-dioxane-4,6-dione], for which the “effet agoniste (activité du récepteur AR)” value in data set [1] is reported as “n'induisent pas une activité anormale des récepteurs”. Moreover, in data set [2], the “effet agoniste (activité du récepteur ERα)” value is “n'induisent pas une activité anormale des récepteurs”. In addition, in data set [3], the “effet agoniste (activité du récepteur PXR)” value is reported as “n'induisent pas une activité anormale des récepteurs”. In addition, the “Perte d'activité (%)” value in data set [4] is given as below 5%; in data set [4] (listed as Composé (1)), 3.5%. Besides, in data set [4] (absorbance before UV exposure), the “A (t=0 min)” value came out at 0.3381. The “effet antagoniste sur le récepteur AR” value in data set [5] is given as “n'empêchent pas l'activité des récepteurs envers les molécules de référence”. Further, in data set [6], the “effet antagoniste sur le récepteur ERα” value was “n'empêchent pas l'activité des récepteurs envers les molécules de référence”. The “effet antagoniste sur le récepteur PXR” value in data set [7] is “n'empêchent pas l'activité des récepteurs envers les molécules de référence”. The compound further gave a λmax in data set [8] of 361.
